Measurements as given in US10568898B2, “Lipophilic nanoparticles for drug delivery” (priority 2013, dated 2020).

Legend:
[1] = tested on: Ramos cells; format: cell-based; settings: FIG. 7, free doxorubicin at 100 nM-1 μM, HDL-Andrographolide NP at 5 nM
Method: For suspension cell lines (Ramos, Jurkat, and SUDHL4), confluent cells were deposited onto 96-well plates at 1×10^5 cells/mL, then treated with either: 1-10 nM HDL NP, 1-10 nM HDL-drug NP, 10 nM-1 μM free drug, or 10 nM human HDL. All solutions were in 1% PBS, in a total volume of 100 μL. Cells were incubated for 48 hours with the treatment, then assessed for viability using a 3-(4,5-dimethylthiazol-2-yl)-5-(3-carboxymethoxyphenyl)-2-(4-sulfo-phenyl)-2H-tetrazolium (MTS) cell proliferation assay. 20 μL of the MTS solution (G1112; Promega) was added to each well; absorbance at 490 nm was measured immediately and after 90 min. Survival for a sample was presented as absorbance for that sample at 90 min, compared to absorbance for the non-treated control at 90 min. Since metabolically active cells reduce MTS, lower absorbance indicates cell death.
Cytotoxicity of the HDL-Doxorobucin NPs was assessed by incubating with lymphoma cells in culture for 48-72 hours, and measuring cell viability by a 3-(4,5-dimethylthiazol-2-yl)-5-(3-carboxymethoxyphenyl)-2-(4-sulfophenyl)-2H-tetrazolium (MTS) assay. […]
For suspension cell lines (Ramos and SUDHL4), 90 μl confluent cells were deposited into 96-well plates at 1×10^5 cells/mL, then treated with 10 μl of either: 1-10 nM HDL NP, 1-10 nM HDL-drug NP, 10 nM-1 μM free drug, 10 nM human HDL, or PBS. […] Cells were incubated for 48 hours with the treatment, and then assessed for viability using a 3-(4,5-dimethylthiazol-2-yl)-5-(3-carboxymethoxyphenyl)-2-(4-sulfo-phenyl)-2H-tetrazolium (MTS) cell proliferation assay. Twenty μL of the MTS solution (G1112; Promega) was added to each well; absorbance at 490 nm was measured immediately and after 90 minutes. […] Cell viability was calculated according to the following formula: Cell viability=(OD490, 90 min(sample)−OD490, 90 min(0% survival control))/(OD490, 90 min(100% survival control)−OD490, 90 min(0% survival control))×100%
Cytotoxicity of the Dox-HDL-NPs was assessed by incubating Dox-HDL-NP, HDL-NP, or free doxorubicin at varying doses with different lymphoma cell lines. […]

[2] = tested on: H9c2 cells; settings: 48- and 72-hour treatment, same concentrations as lymphoma lines
Method: For adherent lines (LNCaP, MDA-MB-231, and H9c2), cells were deposited onto 96-well plates at a concentration of 5×10^4 cells/mL, 24 hours prior to treatment. Cells were then treated, incubated, and assessed as described above for the suspension cells.
The effects of Dox-HDL-NP and free doxorubicin in H9c2 cardiomyoblasts, a rat-derived cardiomyocyte cell line that has been used extensively in mechanistic studies of doxorubicin toxicity in heart cells, have been studied.

[3] = clinical use; cited from earlier work
[4] = tested on: LNCaP adenocarcinoma cell lines; test: Fluorescence microscopy of doxorubicin uptake; format: cell-based, human; settings: 18 hours after treatment
Method: To further confirm delivery of doxorubicin to cancer cells with HDL-NP, LNCaP adenocarcinoma cell lines were assessed by fluorescence microscopy after treatment with free doxorubicin, Dox-HDL-NP, and HDL-NP.

| SMILES | killing effect [1] | cell viability in cardiomyoblasts [2] | cumulative dose above which cardiotoxicity typically occurs [3] | doxorubicin fluorescence in cells [4] |
| --- | --- | --- | --- | --- |
| C=C1CC[C@@H]2[C@](C)(CO)[C@H](O)CC[C@@]2(C)[C@@H]1C/C=C1/C(=O)OC[C@H]1O [Andrographolide] | slight protective effect on cells |  |  |  |
| CC[C@]1(O)C[C@H]2CN(CCc3c([nH]c4ccccc34)[C@@](C(=O)OC)(c3cc4c(cc3OC)N(C=O)[C@H]3[C@@](O)(C(=O)OC)[C@H](OC(C)=O)[C@]5(CC)C=CCN6CC[C@]43[C@@H]65)C2)C1 [Vincristine] | kills with comparable efficiency to the bare HDL NP |  |  |  |
| COc1cccc2c1C(=O)c1c(O)c3c(c(O)c1C2=O)C[C@@](O)(C(=O)CO)C[C@@H]3O[C@H]1C[C@H](N)[C@H](O)[C@H](C)O1 [doxorubicin] | substantial killing effect | significant reduction in viability | exceeds 450 mg/m^2 of body surface area | fluorescence was clearly seen |
